Measurements as given in patent publication US6984659B2, “2-pyrrolidinone derivatives substituted at position 4 for reducing the extracellular glutamate level” (priority 1997, dated 2006).
Entries after “also recorded” stand apart in the source; their conditions may differ.

What was measured:
[1] = tested on: mitochondrial KATP channels; assay: mitochondrial KATP channels, depression of the mitochondrial membrane potential; assay type: biochemical
Protocol: The mode of action of GBP-L and GBP was tested with regard to mitochondrial KATP channels (Szewczyk and Marban 1999). […] Effects of GBP-L on the mitochondrial membrane potential were already seen at 5 μM. […] Thus, the neuroprotective effect of GBP-L seems to be mediated predominantly through mitochondrial KATP channels.

[2] = tested on: retinal gangliocytes (neurons in the ganglion cell layer); assay type: in vivo
Protocol: The following results were found:
10 rats were treated with 0.9% NaCl i.p. at the start of a unilateral one-hour intraocular pressure increase. After 6 hours, the treatment was again carried out with 0.9% NaCl i.p. After 14 days, the rats were sacrificed, and the retinal gangliocytes were investigated. Compared with the respective control eye, only 17.4% (±4%) of the retinal gangliocytes had survived.
In the test group, likewise of 10 rats, 50 mg/kg 8-azaspiro[5,4]decan-9-one was administered i.p. at the start of a unilateral one-hour intraocular pressure increase. The compound was administered again in a dose of 50 mg/kg 6 hours after the intraocular pressure increase. After 14 days, the rats were sacrificed, and the retinal gangliocytes were investigated. It emerged that, compared with the respective control eye, 35% (±7%) of the retinal gangliocytes survived.
The method in brief: Retinal ischemia in the left eye was induced by elevating the intraocular pressure above systolic blood pressure for one hour. Retinal ischemia was confirmed by whitening of the fundus. In the first experiment 10 rats received 50 mg/kg GBP intraperitoneally immediately prior to ischemia and 50 mg/kg 6 hours after reperfusion, 10 rats received 50 mg/kg GBP-L i.p. immediately prior to ischemia and 50 mg/kg 6 hours after reperfusion, and 10 rats received vehicle alone. Ischemic damage was histologically quantified 14 days after ischemia: Both eyes were enucleated and immersed in 4% buffered formaldehyde for 24 hours. Retinal wholemounts were made and stained with cresyl violet, (0.1%, pH 4.5 for 30 min). Ischemic damage was quantified by counting the number of neurons in the ganglion cell layer in a masked fashion. […] This control eye was not subjected to ischemia.
Statistically, the ganglion cell numbers were evaluated as follows: In contrast to the usual ANOVA where the ratio of the mean squares between the treatment groups and the error mean square is used in the F-statistic, the nested design applied here requested another approach. Apart from the factor medication, there were three other sources of variation in our example, (1) the rat, (2) the eye, and (3) the replications of cell counting within each eye. To test for the medication effect the mean square for rat within medication has to be used as denominator. The variability of the eye is then contained in both the numerator (with all contributions to the variance) and the denominator (with the contributions to the variance except that of the factor medication). Thus, the variability of the eye is eliminated in the end and the variance of the factor medication is assessed appropriately in the F-test. The used model was: cell counts=med rat (med) eye(med*rat).
In order to evaluate the therapeutic window of GBP-L as an antiischemic drug (Pulsinelli et al. 1997) its time-effect relationship was tested at 75 mg/kg given twice prior to or after the end of ischemia with an interval of 6 hours.
The dose dependence of the neuroprotective effect of GBP-L was established using 25 mg/kg, 50 mg/kg and 75 mg/kg (see FIG. 7) given twice three hours and nine hours after the end of ischemia.

[3] = tested on: electrically evoked release of [^3H]-NA; assay: electrically evoked release of [^3H]-NA from human brain slices; assay type: cell-based; details: quasi-physiological release
Source text: Note that the deviations indicate confidence intervals (CI95), not standard errors. In this model, GBP and its lactam seem equipotent. GBP and GBP-L are ineffective on the quasi-physiological, electrically evoked release of [^3H]-NA from both rat and human brain slices (not shown).

[4] = tested on: extracellular glutamate level; assay: superfusion experiments on rat brain slices (striatum), glutamate in superfusate by HPLC; assay type: cell-based
Protocol: A solution of gabapentin (100 μM) in physiological buffer (composition below) with a pH of 7.4 was prepared and irradiated with ultraviolet light (260 and 330 nanometers) at 37° C. for two hours. As described in Kearney A. S. et al., International Journal of Pharmaceutics, 78 (1992), 25–34, this slowly produces the lactam 8-azaspiro[5,4]decan-9-one. Because of the slow reaction rate, a yield of about 1% is assumed in accordance with Kearney et al. (1992), which corresponds to a 1 μM solution.
The activity of this solution in reducing the extracellular glutamate level was shown by means of superfusion experiments on rat brain slices. Slices with a thickness of 350 μm from the rat striatum were used for this. In each case, two slices were employed in a superfusion chamber with an extremely small dead volume, about 100 μl. Physiological buffer (concentrations in mM: NaCl 121, KCl 1.8, CaCl2, 1.3, MgSO4 1.2, NaHCO3 25, […] 1.2, glucose 11, pH 7.4, 95% O2/5% CO2-saturated) is then passed over them at 37° C. After a preliminary perfusion, which serves in particular to remove tissue particles and amino acids released by the injury to the tissue, superfusate fractions are collected at a flow rate of 400 to 800 μl every five minutes. […] The superfusates obtained are filtered (0.45 μm pore size) and the amino acid concentrations are determined by HPLC. […]

[5] = tested on: potassium-evoked release of [^3H]-noradrenaline; details: rat neocortex slices; Freiman et al. 2001, FIG. 1.0; cited from earlier work
[6] = tested on: electrically evoked release of Glu; assay: electrically evoked [^3H]-Glu release from [^3H]-Gln-loaded hippocampus slices; assay type: cell-based, rat; details: 540 pulses of 4 ms, 6 Hz, 60 mA, room temperature, 100 μM PDC, added 15 min before second stimulation

SMILES | activity at mitochondrial KATP channels (in words) [1] | neuroprotective effect / number of surviving neurons (in words) ([2]; 50 mg/kg i.p. immediately prior to ischemia and 6 hours after reperfusion, 14 days, listed as gabapentin) | rate of surviving neurons ([2]; 50 mg/kg i.p. twice, ganglion cell layer neurons, 14 days after ischemia, pure ischemia 17.5%) | electrically evoked release of [^3H]-NA (in words) [3] | difference in glutamate between treated and comparative samples ([4]; gabapentin solution (100 μM) not irradiated, no lactam) | potassium-evoked release of [^3H]-noradrenaline (in words) [5] | concentration at which effects on the mitochondrial membrane potential were already seen [1] | EC50 ([1]; read-out: half-maximal depression of the mitochondrial membrane potential) | electrically evoked release of Glu (in words) [6] | electrically evoked release of Glu (in words) ([6]; listed as gabapentin lactam) | retinal gangliocytes survived compared with the respective control eye ([2]; 50 mg/kg i.p. at start of one-hour intraocular pressure increase and again 6 hours after, 14 days, NaCl group 17.4%) | mortality in the 14 days after the test ([2]; 50 mg/kg i.p. twice, 10 rats) | time-effect relationship: neuroprotective action maintained after recirculation ([2]; 75 mg/kg given twice prior to or after the end of ischemia, interval 6 hours, another strain of rats) | slope of regression line of dose-effect relationship ([2]; 25, 50 and 75 mg/kg given twice, three and nine hours after the end of ischemia) | extracellular glutamate concentration found in superfusate ([4]; rat striatum slices flushed with approximately 1 μM solution, control tests 0.24 μM)
NCC1(CC(=O)O)CCCCC1 [GBP, gabapentin, reference compound] | hardly effective | no protective effect whatever | 17.5% | ineffective | no difference could be found | inhibitory effects |  |  |  |  |  |  |  |  | 
O=C1CC2(CCCCC2)CN1 [GBP-L, 8-azaspiro[5,4]decan-9-one] | potent activator |  |  | ineffective |  |  | 5 µM | 85 µM | seems not to be influenced | not influenced; also recorded: unaffected | 35% | no animal died | maintained for more than three hours after recirculation | 0.41 | 0.12 µM
